≈ marks a conversion by molar mass, not a printed value.
Assays:
E. coli and A. baumannii = experiment: Mouse peritonitis model, overall statement; assay type: in vivo; settings: after two-dose treatment
Protocol: Outbred female NMRI mice (NMRI; weight 26–30 g; Taconic, Denmark) were used throughout the study, as previously described ([69], [70]). […] Colistin is recommended at a dose of 5-10 mg/kg, according to the European Medicines Agency (EMA) ([71]). The animals were kept in Macrolon type III cages in groups of six and allowed free access to feed and water. Experiments were initiated after an acclimatization period of 7 days. Inoculation (bacterial infection) was performed by intraperitoneal (IP) injection of 0.5 ml bacterial suspension containing 2×10^7 CFU/ml and 5% (wt/vol) mucin (Sigma-Aldrich). During experiments, groups of eight mice per cage constituting one experimental unit were randomly assigned to treatment (5 mg/kg ChIP and 10 mg/kg ChIP or colistin 10 mg/kg and 24 mg/kg) or no treatment (vehicle). […] Quantification of bacterial load was performed by spot plating of blood and peritoneal fluid samples from the mice. […] Bacterial counts were recorded after overnight incubation at 37 °C in ambient air. […] The clinical condition of the mice was determined using a self-developed clinical score. For this score, mouse behavior and appearance were observed and evaluated for the parameters piloerection, attitude, locomotion, breathing and curiosity and awarded a score from 0 to 5 by a blinded observer. […] All mice were recorded for score 2.

E. coli ATCC 25922 [1] = experiment: MIC in the presence of 50% human serum; assay type: cell-based; settings: 50% heat inactivated human male AB serum and 50% MHB-II; crude measure of protein binding/interference; triplicate
Protocol: The minimum inhibitory concentration (MIC) was determined as previously described ([68]), with minor modifications. Briefly, exponentially growing cultures in MHB-II (37°C) were diluted to an OD600 = 0.002, approximately 1×10^6 colony forming units (CFU) per ml. 100 µl of bacterial suspension was added to polypropylene microtiter plates containing 100 µl of Colistin or ChIP dilutions. Giving a final bacterial inoculum of ∼ 5×10^5 CFU/ml. Colistin sulfate salt (Sigma-Aldrich) and ChIP (Genscript >95% purity) was dissolved in H2O. ChIP MIC in serum was determined in the presence of 50% (heat inactivated) human serum (Sigma) and 50% MHB-II. All experiments were performed in triplicate.

[2] = cited from earlier work
E. coli ESBL20150072 = experiment: In vivo sepsis/peritonitis mouse infection model; settings: NMRI mice infected IP; 10 mg/kg IP at 1 and 3 h; 5 hours post infection
Protocol: Outbred female NMRI mice (NMRI; weight 26–30 g; Taconic, Denmark) were used throughout the study, as previously described ([69], [70]). […] Colistin is recommended at a dose of 5-10 mg/kg, according to the European Medicines Agency (EMA) ([71]). The animals were kept in Macrolon type III cages in groups of six and allowed free access to feed and water. Experiments were initiated after an acclimatization period of 7 days. Inoculation (bacterial infection) was performed by intraperitoneal (IP) injection of 0.5 ml bacterial suspension containing 2×10^7 CFU/ml and 5% (wt/vol) mucin (Sigma-Aldrich). During experiments, groups of eight mice per cage constituting one experimental unit were randomly assigned to treatment (5 mg/kg ChIP and 10 mg/kg ChIP or colistin 10 mg/kg and 24 mg/kg) or no treatment (vehicle). Peptide and colistin was administered as a single bolus injection IP (volume injected 0.2 ml) at 1 hours and again 3. At various times post-infection, ∼200 µL blood from the jaw/cheek was collected in Eppendorf tubes with anti-coagulate (Sarstedt, Nümbrecht, Germany). Peritoneal lavage was performed by injecting 2.0 ml of sterile physiological saline IP. After 1 minute of abdominal massage, the peritoneum was opened and peritoneal lavage fluid (PLF) withdrawn. PLF was immediately placed in an insulated 4 °C cooling box for transportation and kept on ice at 4 °C. The mouse peritonitis model was repeated in duplicates for E. coli ATCC 25922 and A. baumannii ATCC 19606 nad in triplicate for E. coli ESBL20150072, while only a single experiment was carried out on A. baumannii CR17. Animals were sacrificed at various times prior to and following infection. Data from repeated experiments were pooled for analyses. Quantification of bacterial load was performed by spot plating of blood and peritoneal fluid samples from the mice. Dilution series were made in sterile 0.9% NaCl solution, from which 20 μl was spotted on solid lactose agar plates (Bromthymole Blue plates, SSI Diagnostica). Bacterial counts were recorded after overnight incubation at 37 °C in ambient air. The detection limit was 50 CFU/ml. The clinical condition of the mice was determined using a self-developed clinical score. For this score, mouse behavior and appearance were observed and evaluated for the parameters piloerection, attitude, locomotion, breathing and curiosity and awarded a score from 0 to 5 by a blinded observer. 0 = no clinical signs, 1 = slightly ruffled fur, 2 = ruffled fur and strenuous breathing, 3 = 2 plus lethargy, 4 = 3 plus hunched posture and decreased activity, and 5 = moribund. No significant difference in the clinical score between groups was observed 2 and 4 h post treatment. All mice were recorded for score 2.

[3] = test system: Acinetobacter baumannii ATCC 19606; settings: ATCC 19606, reference strain; MHB-II, 37°C, ~5×10^5 CFU/ml, triplicate
P. aeruginosa B3-CFI = settings: clinical isolate, colistin resistant, MHB-II, 37°C, ~5×10^5 CFU/ml, triplicate
E. coli ATCC 25922 [4] = experiment: Time kill experiments; assay type: cell-based; settings: 1xMIC, exponentially growing cells, 5×10^5-1×10^6 CFU/ml, MHB-II; plateau, regrowth evident after 3 hours
A. baumannii ATCC 19606 = experiment: In vivo sepsis/peritonitis mouse infection model; settings: NMRI mice infected IP, 10 mg/kg IP at 1 and 3 h
[5] = test system: Klebsiella pneumoniae ATCC 700603; settings: ATCC 700603, SHV-18, mucoid; MHB-II, 37°C, ~5×10^5 CFU/ml, triplicate
HeLa cells = settings: ChIP concentrations of 40 µg/ml and above, 24 hours, DMEM without serum, Trypan Blue, triplicate
Protocol: HeLa cells were cultured in Dulbecco’s Modified Eagles Medium (DMEM) (Sigma) supplemented with 10% fetal calf serum (Sigma) and 2 mM glutamine at 37°C in a humid incubator with 5% CO2. Cell survival after 24 hours with various amounts of ChIP in DMEM without serum was determined by staining with Trypan Blue Stain (Gibco/Life Technologies). Experiments were performed in triplicate.

[6] = test system: E. coli ML-35p inner membrane; experiment: Permeabilization assay (ONPG / β-galactosidase); assay type: cell-based; settings: ChIP 4, 12 and 20 µg/ml for 20, 40 or 60 minutes; chloramphenicol 200 µg/ml pretreated; level higher than toluene or colistin 2 µg/ml
Protocol: Exponentially growing cells of E. coli ML35 (LacI^- LacY^- LacZ^+) were treated with chloramphenicol (200 µg/ml) to stop protein synthesis. Chloramphenicol treated samples were incubated with ChIP (4, 12 and 20 µg/ml) and colistin (2 µg/ml) for 20, 40 or 60 minutes (12 samples total). 200 µL peptide treated cells were added to 1 ml Z-buffer (0.06M Na2HPO4, 0.04M NaH2PO4, 0.01M KCL, 0.001M MgSO4 and pH = 7) containing 1 mg/ml Ortho-Nitrophenyl-β-galactoside (ONPG). Samples were left at room temperature 15 minutes before stopping color development by addition of 0.5 ml Na2CO3 (1M). Toluene treated cells were included as a control for permeabilized cells. β-galactosidase activity was detected by OD420 measurements.

## CC[C@@H](C)[C@@H](NC(=O)[C@@H](CCCCN)NC(=O)[C@@H](CCCCN)NC(=O)[C@@H](Cc1ccccc1)NC(=O)[C@@H](CC(C)C)NC(=O)[C@@H](CCCCN)NC(=O)[C@H](N)CCCCN)C(=O)N[C@H](CC(C)C)C(=O)N[C@H](CCCNC(=N)N)C(=O)N[C@H](Cc1ccc(O)cc1)C(=O)N[C@H](CC(C)C)C(N)=O [ChIP]
E. coli and A. baumannii
  bacterial reduction intraperitoneal: up to 5 logs
E. coli ATCC 25922 [1]
  MIC in MHB-II + Human serum (50:50) versus MHB-II: did not change the MIC
[2]
  hemolytic activity: low hemolytic activity
E. coli ESBL20150072
  peritoneal titers: 1×10^4 CFU/ml
  reduction in peritoneal titers compared to vehicle (1×10^8 CFU/ml): 3 logs
[3]
  MIC: 8 µg/mL (≈ 5.52 µM)
P. aeruginosa B3-CFI
  MIC: 8 µg/mL (≈ 5.52 µM)
E. coli ATCC 25922 [4]
  reduction in viable cells: 3-4 log
A. baumannii ATCC 19606; after 5 hours
  reduction of peritoneal bacterial titers relative to saline control: 3-4 log
A. baumannii ATCC 19606; after 5 hours, saline control around 1×10^8 CFU/ml
  peritoneal bacterial titers: 1×10^3-1×10^4 CFU/ml
A. baumannii ATCC 19606; detection limit 50 CFU/ml
  bacterial blood titers: reduce CFU/ml to the detection limit
[5]
  MIC: 8 µg/mL (≈ 5.52 µM)
HeLa cells
  HeLa cell survival: greatly reduced survival
[6]
  β-galactosidase activity (ONPG, OD420) of treated cells: increased in a dose dependent manner

Reference: doi:10.1101/2021.12.13.472350v1, “An amphipathic and cationic antimicrobial peptide kills colistin resistant Gram-negative pathogens in vivo” (bioRxiv, 2021)
